# Experimental data: US11447466B2, “Substituted indole compounds useful as inhibitors of TLR7/8/9” (BRISTOL-MYERS SQUIBB COMPANY, priority 2017, dated 2022)
# pIC50: −log10 of the molar value.
# What was measured:
# Type in all cases: cell-based
# human TLR9 = molecular target: T1, human TLR9 (Homo sapiens, UniProt Q9NR96); assay: TLR9 inhibition reporter assay (HEK-Blue SEAP reporter, ODN2006 stimulation); settings: HEK-Blue cells overexpressing human TLR9, SEAP reporter, ODN2006 5 nM, 22 hour incubation
# T1 construct: host or cells: HEK-Blue cells
# T1 sequence (Q9NR96 26-1032): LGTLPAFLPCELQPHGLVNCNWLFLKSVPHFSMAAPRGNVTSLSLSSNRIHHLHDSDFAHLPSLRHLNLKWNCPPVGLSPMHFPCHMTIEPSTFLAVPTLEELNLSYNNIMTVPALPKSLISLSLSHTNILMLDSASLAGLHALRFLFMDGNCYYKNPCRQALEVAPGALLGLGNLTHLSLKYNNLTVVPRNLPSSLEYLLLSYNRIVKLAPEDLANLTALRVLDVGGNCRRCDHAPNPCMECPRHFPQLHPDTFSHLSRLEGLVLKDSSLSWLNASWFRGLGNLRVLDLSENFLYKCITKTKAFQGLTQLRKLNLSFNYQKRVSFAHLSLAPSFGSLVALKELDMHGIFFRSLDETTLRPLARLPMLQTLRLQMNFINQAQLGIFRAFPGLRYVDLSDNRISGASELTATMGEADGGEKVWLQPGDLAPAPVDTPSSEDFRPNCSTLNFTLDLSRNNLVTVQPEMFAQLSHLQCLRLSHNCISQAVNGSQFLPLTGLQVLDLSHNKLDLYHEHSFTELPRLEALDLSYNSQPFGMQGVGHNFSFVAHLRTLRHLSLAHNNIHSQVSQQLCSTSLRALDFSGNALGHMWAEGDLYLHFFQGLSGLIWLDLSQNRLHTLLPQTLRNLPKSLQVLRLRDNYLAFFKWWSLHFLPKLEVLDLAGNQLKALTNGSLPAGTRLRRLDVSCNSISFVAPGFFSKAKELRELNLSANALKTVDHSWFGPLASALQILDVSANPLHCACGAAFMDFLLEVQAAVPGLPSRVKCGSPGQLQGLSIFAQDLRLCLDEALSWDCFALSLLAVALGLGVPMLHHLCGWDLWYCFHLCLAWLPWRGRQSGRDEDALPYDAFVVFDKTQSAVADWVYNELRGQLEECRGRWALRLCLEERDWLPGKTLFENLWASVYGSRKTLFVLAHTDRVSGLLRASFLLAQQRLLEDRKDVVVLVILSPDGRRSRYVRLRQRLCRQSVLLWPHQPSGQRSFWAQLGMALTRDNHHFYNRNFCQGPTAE
# How it was run: (§1)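 HEK-Blue cells overexpressing human TLR7, TLR8 or TLR9 carry a SEAP reporter driven by NF-κB/AP-1 sites. Compounds (0.05 nM–50 μM) were preincubated 30 min at room temperature, then cells were stimulated with gardiquimod 7.5 μM (TLR7), R848 15.9 μM (TLR8) or ODN2006 5 nM (TLR9) for 22 h at 37 °C.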
# human TLR8 = molecular target: T2, human TLR8 (Homo sapiens, UniProt Q9NR97); assay: TLR8 inhibition reporter assay (HEK-Blue SEAP reporter, R848 stimulation); settings: HEK-Blue cells overexpressing human TLR8, SEAP reporter, R848 15.9 μM, 22 hour incubation
# T2 construct: host or cells: HEK-Blue cells
# T2 sequence (Q9NR97 27-1041): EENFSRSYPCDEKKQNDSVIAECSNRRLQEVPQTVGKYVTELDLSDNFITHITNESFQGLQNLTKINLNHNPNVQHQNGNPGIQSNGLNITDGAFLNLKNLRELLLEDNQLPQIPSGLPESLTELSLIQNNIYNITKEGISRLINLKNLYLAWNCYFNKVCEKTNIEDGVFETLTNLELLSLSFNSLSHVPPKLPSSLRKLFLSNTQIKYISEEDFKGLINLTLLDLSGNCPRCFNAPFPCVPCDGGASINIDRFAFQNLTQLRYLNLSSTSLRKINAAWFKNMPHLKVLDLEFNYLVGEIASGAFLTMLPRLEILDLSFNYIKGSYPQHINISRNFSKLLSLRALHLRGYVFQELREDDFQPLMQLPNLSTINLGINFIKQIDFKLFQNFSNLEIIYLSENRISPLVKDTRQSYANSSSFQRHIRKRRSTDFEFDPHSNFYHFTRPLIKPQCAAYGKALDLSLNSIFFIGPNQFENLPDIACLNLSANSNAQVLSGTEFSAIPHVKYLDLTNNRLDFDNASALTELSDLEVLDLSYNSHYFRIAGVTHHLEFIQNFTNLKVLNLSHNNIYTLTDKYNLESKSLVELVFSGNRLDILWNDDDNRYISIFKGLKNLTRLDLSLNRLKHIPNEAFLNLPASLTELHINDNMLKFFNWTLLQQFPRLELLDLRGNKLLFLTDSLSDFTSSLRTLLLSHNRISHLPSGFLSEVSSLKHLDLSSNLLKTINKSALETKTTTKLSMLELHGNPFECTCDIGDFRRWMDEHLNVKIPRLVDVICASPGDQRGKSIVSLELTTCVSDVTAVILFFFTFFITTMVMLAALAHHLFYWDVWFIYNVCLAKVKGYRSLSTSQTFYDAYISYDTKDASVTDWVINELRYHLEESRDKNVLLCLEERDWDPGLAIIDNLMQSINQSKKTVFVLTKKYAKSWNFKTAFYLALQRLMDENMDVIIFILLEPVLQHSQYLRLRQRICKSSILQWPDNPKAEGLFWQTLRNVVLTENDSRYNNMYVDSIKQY
# How it was run: as §1
# human TLR7 = molecular target: T3, human TLR7 (Homo sapiens, UniProt Q9NYK1); assay: TLR7 inhibition reporter assay (HEK-Blue SEAP reporter, gardiquimod stimulation); settings: HEK-Blue cells overexpressing human TLR7, SEAP reporter, gardiquimod 7.5 μM, 22 hour incubation
# T3 construct: host or cells: HEK-Blue cells
# T3 sequence (Q9NYK1 27-1049): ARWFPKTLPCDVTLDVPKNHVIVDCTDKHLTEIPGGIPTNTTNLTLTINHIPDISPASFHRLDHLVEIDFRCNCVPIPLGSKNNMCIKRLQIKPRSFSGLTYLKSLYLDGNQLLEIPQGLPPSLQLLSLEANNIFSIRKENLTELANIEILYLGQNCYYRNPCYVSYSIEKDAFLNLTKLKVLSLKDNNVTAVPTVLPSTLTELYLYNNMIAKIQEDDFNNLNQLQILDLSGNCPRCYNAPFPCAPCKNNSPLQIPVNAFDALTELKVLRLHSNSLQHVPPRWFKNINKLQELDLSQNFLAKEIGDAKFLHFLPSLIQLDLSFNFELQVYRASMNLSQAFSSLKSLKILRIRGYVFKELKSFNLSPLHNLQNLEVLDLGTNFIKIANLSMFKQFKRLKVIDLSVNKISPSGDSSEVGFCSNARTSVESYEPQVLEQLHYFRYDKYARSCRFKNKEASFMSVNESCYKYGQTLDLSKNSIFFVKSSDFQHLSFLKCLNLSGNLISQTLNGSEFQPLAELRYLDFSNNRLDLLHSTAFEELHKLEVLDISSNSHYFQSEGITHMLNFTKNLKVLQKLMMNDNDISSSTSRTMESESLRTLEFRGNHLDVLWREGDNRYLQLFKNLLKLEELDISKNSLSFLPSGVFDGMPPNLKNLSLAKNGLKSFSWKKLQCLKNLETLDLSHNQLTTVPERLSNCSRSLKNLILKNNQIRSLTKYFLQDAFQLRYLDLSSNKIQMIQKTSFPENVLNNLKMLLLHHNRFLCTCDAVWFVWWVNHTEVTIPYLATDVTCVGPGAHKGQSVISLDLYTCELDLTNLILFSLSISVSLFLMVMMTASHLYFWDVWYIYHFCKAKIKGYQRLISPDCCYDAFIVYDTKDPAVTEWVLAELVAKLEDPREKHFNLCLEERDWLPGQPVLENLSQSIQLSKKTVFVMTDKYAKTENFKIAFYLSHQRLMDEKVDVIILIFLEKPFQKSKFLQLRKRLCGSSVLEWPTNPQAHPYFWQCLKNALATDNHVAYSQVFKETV
# How it was run: as §1
SMILES,pIC50 (human TLR9),pIC50 (human TLR8),pIC50 (human TLR7)
"Cc1nc(-c2[nH]c3ccc(C4CCN(CC(=O)N(C)C)CC4)cc3c2C(C)C)cn(C)c1=O [Example 115, 2-(4-(2-(4,6-dimethyl-5-oxo-4,5-dihydropyrazin-2-yl)-3-isopropyl-1H-indol-5-yl)piperidin-1-yl)-N,N-dimethylacetamide]",5.18,7.38,7.32
"Cc1cc(-c2[nH]c3ccc(C4CCN(C5CC(C)OC5=O)CC4)cc3c2C(C)C)cn(C)c1=O (stereo not drawn) [Example 149, 5-(3-isopropyl-5-(1-(5-methyl-2-oxotetrahydrofuran-3-yl)piperidin-4-yl)-1H-indol-2-yl)-1,3-dimethylpyridin-2(1H)-one]",4.64,7.56,7.80
"Cc1c(-c2[nH]c3ccc(C4CCN(CCS(C)(=O)=O)CC4)cc3c2C(C)C)cn(C)c(=O)c1Cl [Example 107, 3-chloro-5-(3-isopropyl-5-(1-(2-(methylsulfonyl)ethyl)piperidin-4-yl)-1H-indol-2-yl)-1,4-dimethylpyridin-2(1H)-one]",4.87,8.36,8.18
"Cc1cc(-c2[nH]c3ccc(C4CCN(CC(=O)N(C)C)CC4)cc3c2C(C)C)c(C)n(C)c1=O [Example 138, 2-(4-(3-isopropyl-2-(1,2,5-trimethyl-6-oxo-1,6-dihydropyridin-3-yl)-1H-indol-5-yl)piperidin-1-yl)-N,N-dimethylacetamide]",5.12,8.28,7.76
"Cc1cc(-c2[nH]c3ccc(C4CCNCC4)cc3c2C(C)C)cn(CC(C)(C)O)c1=O [Example 43, 1-(2-hydroxy-2-methylpropyl)-5-(3-isopropyl-5-(piperidin-4-yl)-1H-indol-2-yl)-3-methylpyridin-2(1H)-one]",5.81,6.81,6.96
"Cc1cc(-c2[nH]c3ccc(C4CCN(CC(C)C)CC4)cc3c2C(C)C)cn(CC(C)C)c1=O [Example 112, 1-isobutyl-5-(5-(1-isobutylpiperidin-4-yl)-3-isopropyl-1H-indol-2-yl)-3-methylpyridin-2(1H)-one]",5.63,7.15,7.41
"CCc1cc(-c2[nH]c3ccc(C4CCNCC4)cc3c2C(C)C)cn(CC)c1=O [Example 68, 1,3-diethyl-5-(3-isopropyl-5-(piperidin-4-yl)-1H-indol-2-yl)pyridin-2(1H)-one]",5.27,8.01,8.07

# More lines, now with the values ahead:
pIC50 (human TLR9),pIC50 (human TLR8),pIC50 (human TLR7),SMILES
4.78,7.71,7.99,"COCCn1cc(-c2[nH]c3ccc(C4CCN(CC(=O)N(C)C)CC4)cc3c2C(C)C)cc(C)c1=O [Example 159, 2-(4-(3-isopropyl-2-(1-(2-methoxyethyl)-5-methyl-6-oxo-1,6-dihydropyridin-3-yl)-1H-indol-5-yl)piperidin-1-yl)-N,N-dimethylacetamide]"
5.99,5.67,7.54,"CCCN1CCC(c2ccc3[nH]c(-c4cc(-c5cnc(C(F)(F)F)nc5)c(=O)n(C)c4)c(C(C)C)c3c2)CC1 [Example 339, 5-(3-isopropyl-5-(1-propylpiperidin-4-yl)-1H-indol-2-yl)-1-methyl-3-(2-(trifluoromethyl)pyrimidin-5-yl) pyridin-2(1H)-one]"
5.25,7.87,7.95,"COc1cc(-c2[nH]c3ccc(C4CCN(C5COC5)CC4)cc3c2C(C)C)cn(C)c1=O [Example 202, 5-(3-isopropyl-5-(1-(oxetan-3-yl)piperidin-4-yl)-1H-indol-2-yl)-3-methoxy-1-methylpyridin-2(1H)-one]"
6.82,8.16,7.52,"CNCCN1CCC(c2ccc3[nH]c(-c4ccc(=O)n(C)c4)c(C(C)C)c3c2)CC1 [Example 172, 5-(3-isopropyl-5-(1-(2-(methylamino)ethyl)piperidin-4-yl)-1H-indol-2-yl)-1-methylpyridin-2(1H)-one]"
4.97,7.60,8.15,"CCCN1CCC(c2ccc3[nH]c(-c4cc(COC)c(=O)n(C)c4)c(C(C)C)c3c2)CC1 [Example 348, 5-(3-isopropyl-5-(1-propylpiperidin-4-yl)-1H-indol-2-yl)-3-(methoxymethyl)-1-methylpyridin-2(1H)-one]"
5.91,8.28,8.21,"Cc1c(-c2[nH]c3ccc(C4CCN(CC(O)CO)CC4)cc3c2C(C)C)cn(C)c(=O)c1Cl (stereo not drawn) [Example 253, 3-chloro-5-(5-(1-(2,3-dihydroxypropyl)piperidin-4-yl)-3-isopropyl-1H-indol-2-yl)-1,4-dimethylpyridin-2(1H)-one]"
5.45,8.09,8.46,"CCCCN1CCC(c2ccc3[nH]c(-c4cn(C)c(=O)c(Cl)c4C)c(C(C)C)c3c2)CC1 [Example 251, 5-(5-(1-butylpiperidin-4-yl)-3-isopropyl-1H-indol-2-yl)-3-chloro-1,4-dimethylpyridin-2(1H)-one]"
